Assay [1] is described as follows: Free radical scavenging ability (DPPH). The conditions noted are these: 37° C. 30 minutes, FIG. 2. As to the method:
A radical solution was prepared by dissolving 100 µM diphenylpicrylhydrazyl (DPPH), composed of stable free radicals, in 99% ethanol. A reaction solution was prepared by dissolving syringaresinol in distilled water with different concentrations (pg/mL) and mixing the syringaresinol solution with the radical solution. A reaction solution not containing syringaresinol was used as a negative control and a reaction solution containing vitamin C (Vit C) was used as a positive control. After sufficiently reacting at 37° C. for 30 minutes, radical scavenging ability was evaluated by measuring absorbance at 515 nm. The radical scavenging ability was calculated relative to the negative control group as 100.

Assay [2] in a line: Skin whitening effect when applied to UVB-tanned human skin. The assay is classed as in vivo. The conditions noted are these: 1% applied on upper arm after UVB, 10 weeks, 12 male subjects. As to the method:
First, opaque tapes having holes of 1.5 cm in diameter were attached on the upper arms of 12 healthy male subjects and UVB of about 1.5-2 times the minimal erythemal dose was irradiated to each subject to induce skin tanning. […] Then, the change was monitored for 10 weeks. The color of the skin was measured with 1-week interval using the CR2002 colorimeter (Minolta, Japan). The change in skin color (ΔL*) between the time when the test substance was applied and the time when the test was completed was calculated according to Equation 3. Skin whitening effect is evaluated by comparing the ΔL* of the part where the test substance was applied with that of the control part. A ΔL* value of about 2 can be interpreted as distinct skin whitening effect and one about 1.5 can be evaluated as positive skin whitening effect.
ΔL*=(L* when test was completed)−(L* when test substance was applied) [Equation 3]

The nature of assay [3]: Skin whitening effect when orally administered, UV-irradiated brown guinea pig. The format is in vivo. The conditions noted are these: 1% in feed, 5 weeks, oral. As to the method:
Minimal erythemal dose was measured after irradiating UV to guinea pigs. After grouping the guinea pigs with 10 per each group, UV of the minimal erythemal dose was irradiated once a day, for a total of 3 times. The guinea pigs were allowed free access to feed for 5 weeks. The feed contained 1% syringaresinol or 1% vitamin C (Vit C) as a positive control. Skin pigmentation was measure using a colorimeter in substantially the same manner as in Test Example 6.

In another assay the test system is SIRT1. Nature of the assay: SIRT1 expression promoting effect in human fibroblasts. The assay is classed as cell-based. The following applies: HDF cells, 20, 50 or 100 μM, 24 hours, FIG. 4. As to the method: Human keratinocyte HaCaT cells or human fibroblast HDF cells were cultured under the condition of 37° C. and 5% CO2 in DMEM ((Gibco 1210-0038)) containing 10% fetal bovine serum.
The cultured cells were treated with syringaresinol dissolved in DMSO at a concentration of 20, 50 or 100 μM for 24 hours. Separately from this, the cells were treated with DMSO of 1/1000 of the volume of the culture medium as a negative control. After treating with the test substance, the cells were washed twice with cold PBS and RNA was extracted using TRIzol reagent (Invitrogen). Then, cDNA was synthesized using 1 μg/μL of the extracted RNA and a reverse transcription system (Promega). The expression pattern of the SIRT1 and GAPDH genes was monitored using the synthesized cDNA and predesigned primers and probes (Applied Biosystems; SIRT1, Hs01009006_ml; GAPDH, Hs99999905_ml). PCR reaction and analysis were carried out using the Rotor-Gene 3000 system (Corbett Research, Sydney, Australia). The result is shown in FIG. 3 (keratinocytes) and FIG. 4 (fibroblasts).

A further assay relates to TGF-β1. Briefly: TGF-β1 production in fibroblasts (ELISA). The format is cell-based, human. The conditions noted are these: HDF cells, 24 hours. As to the method:
Human fibroblast HDF cells were cultured in substantially the same manner as in Test Example 10.
The cultured cells were treated with syringaresinol dissolved in DMSO to a concentration of 20, 50 or 100 μM for 24 hours. After 24 hours, the cell culture was recovered.
The quantity of TGF-β1 produced in the recovered cell culture was measured using the Quantikine™ high-sensitivity ELISA kit (R&D Systems, USA) according to the manufacturer's instructions. All the samples required for the measurement of the quantity of TGF-β1 were provided by the kit. First, the recovered cell culture was transferred to a 96-well microplate uniformly coated with TGF-β1 antibody and it was allowed for antigen-antibody reaction to proceed at 37° C. for 1 hour. After removing the cell culture, the wells were washed 3 times with PBS. Then, horseradish peroxidase-conjugated secondary antibody was added to each well and it was allowed for antigen-antibody reaction to proceed for 1 hour. Subsequently, after adding tetramethylbenzidine as a chromogenic substrate to each well, followed by reaction at room temperature for 15 minutes, 1 N sulfuric acid was added to stop the reaction. Then, absorbance was measured at 450 nm using a spectrophotometer. After drawing a standard curve using a standard solution, the TGF-β1 production amount in the cell culture with the test substance added was calculated from the measured absorbance.
Background: In an ELISA, binding on a coated surface is turned into a signal by an enzyme label.

A short description of assay [4]: Skin wrinkle formation after UVB in hairless mouse. The format is in vivo, hairless mice (SKH: HR-1). The conditions noted are these: UVB 180 mJ/cm^2. As to the method: 30-week-old female hairless mice (SKH: HR-1) weighing 25-39 g were purchased from Charles River Laboratories (Wilmington, Mass., USA). The mice were accustomed to the laboratory environment for a week and then grouped into normal groups and test substance-treated groups, with 5 mice per each group. The mice were allowed free access to water and feed under the condition of 12-hour light/dark cycles, 23.2° C. and 55.10% humidity.
For the test substance-treated groups, a patch of 1% syringaresinol dissolved in a solvent (1,3-butylene glycol:ethanol=7:3) was applied 2 times for 2 days or 200 mg/kg syringaresinol was orally administered. The control groups were treated in the same way using the solvent of the same amount instead of syringaresinol. The syringaresinol-applied group, syringaresinol oral administration group and control groups were exposed to UVB of 180 mJ/cm^2. Before and after the UV radiation, skin wrinkles on the exposed part were taken with replica and measured using the Visiometer system (C+K).
Change (%)=[(Tdi−Tdo)/(Tdo)]×100 [Equation 4]
Tdi: value measured after UV radiation
Tdo: value measured before UV radiation

SMILES strings stand for the structures. Bounds are passed on as bounds.

Turning to `COc1cc(C2OCC3C(c4cc(OC)c(O)c(OC)c4)OCC23)cc(OC)c1O` (stereo not drawn) [Syringaresinol, syringaresinol], the “Free radical scavenging ability” value in assay [1] was “scavenge free radicals in a concentration-dependent manner and the effect is superior to that of vitamin C”. In addition, in assay [2], the “Change in skin brightness (ΔL*)” value is listed as 1.98 ± 0.11. The “Skin color brightness (ΔL*)” value in assay [3] is reported as 1.67 ± 0.25. Also, the “Increase of SIRT1 expression” value with SIRT1 is no less than 4 times. The TGF-β1 production amount in the assay on TGF-β1 (20 μM) was determined as 43.3 ± 1.0; with TGF-β1 (50 μM) it was 87.2 ± 4.2; in the assay on TGF-β1 (100 μM) it was 92.1 ± 5.6. Also, the “Increase of skin wrinkles (Change %)” value in assay [4] (application of 1% patch, control 230±35%) is reported as 121±35%; in assay [4] (oral administration 200 mg/kg, control 224±45%), 123±25%.
